According to patent US6025358A, “Double prodrugs of potent GP IIb/IIIa antagonists” (G. D. Searle & Co., priority 1999, dated 2000):
Structures can show the parent of a compound that is named as a salt.

The molecules below were run on platelet aggregation (assay: Ex vivo screening of oral GP IIb/IIIa inhibitors: inhibition of collagen-induced platelet aggregation in PRP after oral dosing in beagles). Details: Canis lupus familiaris, Platelet, beagle dogs, 5 mpk, n = 2, 32 hours post-dosing, collagen agonist, read-out: Percent inhibition of platelet aggregation at 32 hour post-dosing.
Method: Beagles (8-13 kg, various sources) of either sex are dosed orally with compound in a gelatin capsule. Blood samples are drawn from the cephalic vein using a 23 ga infusion butterfly. Samples for platelet aggregation and drug concentration are taken prior to dosing and 0.5, 1, 2, 3, 5, 7 and 10 hours after dosing and periodically on subsequent days until inhibition of platelet aggregation is less than 30%. Animals are fasted, with ad lib access to water, overnight prior to dosing. For measurement of plasma concentration blood is drawn into a 3 ml tube containing 45 USP units of Na Heparin. Blood is centrifuged at 1700×g for 10 minutes, plasma is aspirated and frozen at -20° C. until analyzed by HPLC. For measurement of platelet aggregation, blood is drawn into 2 2.0 ml tubes containing 0.2 ml of 3.8% Na Citrate. Blood is centrifuged at 250×g for 6 minutes and the platelet rich plasma (PRP) is aspirated. The remaining blood is centrifuged at 1700×g for 10 minutes and platelet poor plasma (PPP) is aspirated. Platelet aggregation is performed in a Bio-Data PAP-4 aggregometer (Bio-Data Corp., Havertown, Pa.) using collagen (100 μg/ml final concentration; Helena Laboratories, Beaumont, Tex.) as the agonist. Briefly, baseline (100% aggregation) is set using PPP; PRP is incubated at 37° C. for one minute without stirring and one minute with stirring, agonist is added and aggregation is allowed to develop for 4 minutes. Percent aggregation post-dosing is compared to percent aggregation pre-dosing to determine percent inhibition.
Percent inhibition of platelet aggregation at 32 hour post-dosing in
beagle dogs (5 mpk, n = 2)
`CC(C)OC(=O)CCNC(=O)N[C@H]1CCN(c2ccc(C(N)=NOC(N)=O)cc2)C1=O` [5(b), N-[[[(3S)-1-[4-[[[(aminocarbonyl)oxy]amino]iminomethyl]phenyl]-2-oxo-3-pyrrolidinyl]amino]carbonyl]-β-alanine 1-methylethyl ester] was tested, and the inhibition in vivo at 5 mg/kg was 64%. For `NC(=O)ON=C(N)c1ccc(N2CC[C@H](NC(=O)NCCC(=O)OC3CCCCC3)C2=O)cc1` [5(h), N-[[[(3S)-1-[4-[[[(aminocarbonyl)oxy]amino]iminomethyl]phenyl]-2-oxo-3-pyrrolidinyl]amino]carbonyl]-β-alanine cyclohexyl ester], the inhibition in vivo at 5 mg/kg was 28%. With `COC(=O)CCNC(=O)N[C@H]1CCN(c2ccc(C(N)=NO)cc2)C1=O` [Example 1(a), N-[[[(3S)-1-[4-[(hydroxyamino)iminomethyl]phenyl]-2-oxo-3-pyrrolidinyl]amino]carbonyl]-β-alanine methyl ester] the inhibition in vivo at 5 mg/kg was 85%. With `CCOC(=O)CCNC(=O)N[C@H]1CCN(c2ccc(C(N)=NO)cc2)C1=O` [Example 1, N-[[[(3S)-1-[4-[(hydroxyamino)iminomethyl]phenyl]-2-oxo-3-pyrrolidinyl]amino]carbonyl]-β-alanine ethyl ester monohydrochloride] the inhibition in vivo at 5 mg/kg was 95%. Work on `COC(=O)CCNC(=O)N[C@H]1CCN(c2ccc(C(=N)NOC(=O)N3CCN(C)CC3)cc2)C1=O` [Example 3, N-[[[(3S)-1-[4-[imino[[[(4-methyl-1-piperazinyl)-carbonyl]oxy]amino]-methyl]phenyl]-2-oxo-3-pyrrolidinyl]amino]carbonyl]-β-alanine methyl ester] yielded an inhibition in vivo at 5 mg/kg of 66%. For `COC(=O)CCNC(=O)N[C@H]1CCN(c2ccc(C(N)=NOC(=O)N(C)C)cc2)C1=O` [Example 4, N-[[[(3S)-1-[4-[[[[(dimethylamino)carbonyl]oxy]amino]iminomethyl]phenyl]-2-oxo-3-pyrrolidinyl]amino]carbonyl]-β-alanine methyl ester], the inhibition in vivo at 5 mg/kg was 68%. With `COC(=O)CCNC(=O)N[C@H]1CCN(c2ccc(C(N)=NOC(N)=O)cc2)C1=O` [Example 5, N-[[[(3S)-1-[4-[[[(aminocarbonyl)oxy]amino]iminomethyl]-phenyl]-2-oxo-3-pyrrolidinyl]amino]carbonyl]-β-alanine methyl ester] the inhibition in vivo at 5 mg/kg was 89%. `CCOC(=O)CCNC(=O)N[C@H]1CCN(c2ccc(C(=N)NC(=O)c3ccccc3)cc2)C1=O` [Example 7, N-[[[3(S)-1-[4-[imino[(phenylcarbonyl)amino]methyl]phenyl]-2-oxo-3-pyrrolidinyl]amino]carbonyl]-β-alanine ethyl ester] gave an inhibition in vivo at 5 mg/kg of 53%. With `CCOC(=O)CCNC(=O)N[C@H]1CCN(c2ccc(C(N)=NOC(C)=O)cc2)C1=O` [Example 8, N-[[[(3S)-1-[4-[[(acetyloxy)amino]iminomethyl]phenyl]-2-oxo-3-pyrrolidinyl]amino]carbonyl]-β-alanine ethyl ester] the inhibition in vivo at 5 mg/kg was 57%. Work on `CCOC(=O)CCNC(=O)N[C@H]1CCN(c2ccc(C(N)=NOC(=O)OCC)cc2)C1=O` [Example 9, N-[[[(3S)-1-[4-[[[(ethoxycarbonyl)oxy]amino]iminomethyl]phenyl]-2-oxo-3-pyrrolidinyl]amino]carbonyl]-β-alanine ethyl ester] yielded an inhibition in vivo at 5 mg/kg of 90%. `CCOC(=O)CCNC(=O)N[C@H]1CCN(c2ccc(C(=N)NOC(=O)OCC(Cl)(Cl)Cl)cc2)C1=O` [Example 10, N-[[[(3S)-1-[4-[imino[[[(2,2,2-trichloroethoxy)carbonyl]oxy]amino]methyl]phenyl]-2-oxo-3-pyrrolidinyl]amino]carbonyl]-β-alanine ethyl ester] was tested, and the inhibition in vivo at 5 mg/kg was 84%.

Same assay, conditions: beagle dogs, 5 mpk, n = 2, 10 hours post-dosing, collagen agonist
`CN(C)CCN(C)C(=O)ONC(=N)c1ccc(N2CC[C@H](NC(=O)NCCC(=O)O)C2=O)cc1.O.O=C(O)C(F)(F)F.O=C(O)C(F)(F)F` [6(a), N-[[[(3S)-1-[4-(1-imino-5,8-dimethyl-4-oxo-3-oxa-2,5,8-triazanon-1-yl)phenyl]-2-oxo-3-pyrrolidinyl]amino]carbonyl]-β-alanine bis(trifluoroacetate) monohydrate] was tested, and the “% inhibition of platelet aggregation @ 10 hours” value (“% inhibition” below) was 61%. In the case of `NC(=O)ON=C(N)c1ccc(N2CC[C@H](NC(=O)NCCC(=O)O)C2=O)cc1` [6(d), N-[[[(3S)-1-[4-[[[(aminocarbonyl)oxy]amino]iminomethyl]phenyl]-2-oxo-3-pyrrolidinyl]amino]carbonyl]-β-alanine], the “% inhibition” value is reported as 15%. `N=C(N)c1ccc(N2CC[C@H](NC(=O)NCCC(=O)O)C2=O)cc1` [6(e), N-[[[(3S)-1-[4-(Aminoiminomethyl)phenyl]-2-oxo-3-pyrrolidinyl]amino]-carbonyl]-β-alanine trifluoroacetate, reference compound] was tested, and the “% inhibition” value was 28%.
